In ChEMBL document CHEMBL5724558, “Image-based profiling of drug vulnerabilities in CRC organoids” (2024):
Values joined by “and” are separate entries in the source; they are usually repeats but may differ in a detail not shown here. Equal values may be shown once.

Experiments:
Type in all cases: functional, Homo sapiens
Set-up in all cases: dose or concentration left out as unconfirmed
Colon cancer organoid [1] = assay: (§1) Image-based profiling of donated chemical probes and chemogenomic kinase set in O21 CRC organoid. Image analysis is performed on the sum area metric, and the data were normalized to the DMSO control. After imaging the organoid viability is measured using the OneGloEX Luciferase Assay System. The normalized viability data and sum area are reported.
Colon cancer organoid [2] = assay: as §1, with “O06” for “O21”
Colon cancer organoid [3] = assay: as §1, with “O09” for “O21”

SMILES	Cell Viability (Colon cancer organoid [1]; Replication number 1)	Cell Viability (Colon cancer organoid [1]; Replication number 2)	Cell Viability (Colon cancer organoid [2]; Replication number 1)	Cell Viability (Colon cancer organoid [2]; Replication number 2)	Cell Viability (Colon cancer organoid [3]; Replication number 1)	Cell Viability (Colon cancer organoid [3]; Replication number 2)
COc1ccccc1-c1cc(Nc2cccc(CS(N)(=O)=O)c2)ncn1	89.4274% and 95.331%	104.034% and 107.665%	93.0282% and 99.0402%	104.398% and 112.494%	75.7277% and 70.3132%	83.1557% and 105.011%
Cc1c(C(=O)O)cc(-c2ccc(C3CCNCC3)cc2)c2ccc(-c3ccc(C(F)(F)F)cc3)cc12.Cl	85.8075% and 94.398%	96.6667% and 83.1067%	120.986% and 114.413%	106.141% and 127.102%	120.061% and 98.4744%	101.967% and 96.9469%
OCCn1cc(-c2cnc3nnn(Cc4ccc5ncccc5c4)c3n2)cn1 [PF-04217903]	106.76% and 119.861%	108.21% and 119.755%	92.042% and 100.376%	104.418% and 102.005%	126.877% and 95.995%	92.9183% and 79.3656%
Cc1cnc(Nc2ccc(F)cc2Cl)nc1-c1c[nH]c(C(=O)N[C@H](CO)c2cccc(Cl)c2)c1	28.1046% and 23.9721%	23.785% and 21.0148%	3.326% and 7.634%	–	6.582% and 13.6138%	–
C[C@H](c1ccc(F)cc1)N(Cc1ccc(Cl)c(C(=O)O)c1)C(=O)c1cnc2ccccc2c1 [PF-05257137]	104.015% and 83.2471%	99.7446% and 91.3265%	112.636% and 114.286%	58.4583% and 44.0628%	171.765% and 153.146%	140.713% and 101.643%
Nc1ccc(C(=O)Nc2cccc(-c3nc(N4CCOCC4)c4oc5ncccc5c4n3)c2)cn1	74.5315% and 72.4739%	83.2595% and 89.2407%	13.3803% and 32.049%	–	90.7287% and 76.048%	104.901% and 91.2435%
C=CC(=O)Nc1ccc2[nH]c(=O)n(C3CCN(C(=O)c4ccc(-c5nc6cc[nH]c(=O)c6cc5-c5ccccc5)cc4)CC3)c2c1	115.206% and 106.481%	111.195% and 142.785%	120.248% and 109.056%	107.251% and 98.7147%	86.8441% and 100.234%	90.0124% and 91.2435%
C[C@@H](NC(=O)Nc1cc2[nH]ncc2c(CO)n1)c1ccccc1 [ERKi]	47.444% and 52.6843%	54.1158% and 53.5714%	27.1255% and 47.7752%	41.1023% and 64.199%	38.3769% and 59.9681%	20.7917% and 30.6681%
CC[C@H](CO)Nc1nc(NCc2ccccc2)c2ncn(C(C)C)c2n1 [SELICICLIB]	79.2225% and 95.8885%	112.922% and 92.6952%	146.934% and 137.321%	92.4206% and 95.8355%	133.303% and 96.4937%	129.12% and 84.4947%
COc1cc(C(=O)N2CC[C@@H](O)[C@@H](N)C2)cc2nc(-c3cc4ccccc4n3CC3CC3)n(C)c12.Cl	95.6097% and 101.11%	84.8651% and 86.9928%	141.855% and 120.564%	139.679% and 135.263%	108.535% and 117.543%	77.7437% and 99.4932%
CCC(=N\O)/C(C)=C/c1ccc(F)c(C)c1 [A-226]	109.207% and 89.6507%	103.65% and 86.2245%	97.0228% and 105.855%	79.4149% and 80.7818%	100.912% and 93.6554%	132.086% and 110.405%
CN1C(=O)c2sccc2N(C)c2nc(Nc3ccc(S(N)(=O)=O)cc3)ncc21	57.1917% and 77.4913%	65.5582% and 80.0288%	15.9976% and 28.488%	18.284% and 43.3933%	28.4515% and 23.8118%	41.5113% and 34.0138%
Cc1ccc(C(=O)Nc2cccc(C(F)(F)F)c2)cc1Nc1nc(-c2cccnc2)nc2c1cnn2C	58.179% and 60.2091%	55.1529% and 56.0201%	111.788% and 111.949%	93.5249% and 94.6015%	119.681% and 88.2655%	229.025% and 116.079%
COc1ccccc1S(=O)(=O)Nc1ccc2c(c1)CN(C)C(=O)N2	64.6421% and 66.4272%	105.73% and 125.656%	152.206% and 125.879%	155.447% and 126.899%	91.3379% and 107.573%	93.4533% and 109.471%
CN(C)[C@@H]1CCN(c2cc(-c3ccccc3)nc3ccnn23)C1 [(R)-ZINC-3573]	105.256% and 112.95%	102.245% and 84.1264%	99.7285% and 119.514%	116.173% and 112.206%	69.8572% and 93.5976%	61.7883% and 100.515%
Cc1c(Nc2ccc(S(=O)(=O)N3CCN(C)CC3)cc2F)nc2ccc(Nc3cnn(C4CC4)c3)cn2c1=O	116.907% and 92.8805%	82.2867% and 96.1217%	183.611% and 128.295%	165.181% and 157.488%	89.3145% and 89.49%	245.21% and 122.015%
CN1CCN(C(=O)C(C)(C)c2ccc(C(=O)Nc3cn4cc(-c5ccncc5)ccc4n3)cc2)CC1 [T3-CLK]	57.8975% and 103.622%	54.6627% and 104.082%	42.3595% and 97.4239%	42.5998% and 77.939%	41.227% and 51.6061%	31.6537% and 31.5444%
CC(C)NC(=O)N1CC[C@H](NC2=Nc3cc(F)ccc3N(CC(F)F)c3ccc(Cl)cc32)C1	89.5308% and 79.3405%	112.883% and 89.5415%	76.3577% and 106.595%	67.4805% and 91.0899%	65.8757% and 85.8718%	77.8958% and 74.4882%
CCc1cc2cc(NS(=O)(=O)c3ccc(C#N)cc3)ccc2n(CC)c1=O	101.899% and 123.449%	90.9641% and 104.714%	145.787% and 148.591%	141.244% and 141.715%	136.869% and 118.47%	168.563% and 119.449%
Cc1cc(C)cc([C@@H]2c3cc(C)ccc3NC(=O)CN2C(=O)c2ccc(Br)s2)c1	115.521% and 108.165%	94.8359% and 62.8282%	111.534% and 83.1141%	141.021% and 89.6176%	106.396% and 98.9954%	263.199% and 111.182%
Cc1cc(C)cc([C@H]2c3cc(C)ccc3NC(=O)CN2C(=O)c2ccc(Br)s2)c1	126.442% and 119.334%	102.791% and 105.788%	159.149% and 112.832%	176.911% and 106.346%	143.943% and 101.546%	157.398% and 102.629%
COc1ncc(-c2ccc3nccc(-c4ccnnc4)c3c2)cc1NS(=O)(=O)c1ccc(F)cc1F [OMIPALISIB]	14.5309% and 34.1185%	–	2.947% and 9.014%	1.718% and 5.799%	14.1746% and 4.189%	12.1613% and 4.9671%
Cn1nc(C(=O)NCc2ccc(C(=O)O)cc2)cc1-c1ccc2[nH]ccc2c1 [BI 4395]	90.5249% and 84.9935%	78.9736% and 83.6735%	93.2096% and 84.0749%	51.0154% and 42.4045%	118.116% and 98.6727%	113.973% and 124.717%
Cc1cccc(-c2cnc3occ(-c4ccc(C(=O)O)c(C5CCCC5)c4)c3c2)c1	122.241% and 115.611%	124.793% and 91.2416%	91.6718% and 109.086%	100.62% and 106.871%	143.367% and 90.8211%	122.111% and 97.0079%
CC(C)(O)[C@H](F)CN1Cc2cc(NC(=O)c3cnn4cccnc34)c(N3CCOCC3)cc2C1=O	101.018% and 118.952%	110.562% and 109.619%	109.705% and 119.757%	130.929% and 135.992%	71.2325% and 98.662%	94.649% and 96.9469%
Cc1ccc2[nH]c(CNCCCc3ccncc3)cc(=O)c2c1 [UCSF924NC]	94.0995% and 104.765%	78.5864% and 74.4392%	91.5293% and 106.883%	122.187% and 128.063%	130.653% and 96.5987%	94.8728% and 93.7748%
CC1CCN(c2ccnc(NCc3cn(C)cn3)n2)CC1 [TP-040]	98.573% and 105.41%	113.293% and 110.51%	114.457% and 102.441%	78.7525% and 90.5361%	164.974% and 118.043%	162.348% and 114.826%
